The term EC30 denotes the concentration at which the effect reaches the 30% level.

These results are taken from US10758534B2 (Vertex Pharmaceuticals Incorporated, priority 2014, dated 2020).

The target of the first experiment is T1, F508del (Homo sapiens, UniProt P13569, DEL508-508).
T1 construct: expressed in transfected cells
T1 sequence (P13569 with tags, fused parts or gaps DEL508-508): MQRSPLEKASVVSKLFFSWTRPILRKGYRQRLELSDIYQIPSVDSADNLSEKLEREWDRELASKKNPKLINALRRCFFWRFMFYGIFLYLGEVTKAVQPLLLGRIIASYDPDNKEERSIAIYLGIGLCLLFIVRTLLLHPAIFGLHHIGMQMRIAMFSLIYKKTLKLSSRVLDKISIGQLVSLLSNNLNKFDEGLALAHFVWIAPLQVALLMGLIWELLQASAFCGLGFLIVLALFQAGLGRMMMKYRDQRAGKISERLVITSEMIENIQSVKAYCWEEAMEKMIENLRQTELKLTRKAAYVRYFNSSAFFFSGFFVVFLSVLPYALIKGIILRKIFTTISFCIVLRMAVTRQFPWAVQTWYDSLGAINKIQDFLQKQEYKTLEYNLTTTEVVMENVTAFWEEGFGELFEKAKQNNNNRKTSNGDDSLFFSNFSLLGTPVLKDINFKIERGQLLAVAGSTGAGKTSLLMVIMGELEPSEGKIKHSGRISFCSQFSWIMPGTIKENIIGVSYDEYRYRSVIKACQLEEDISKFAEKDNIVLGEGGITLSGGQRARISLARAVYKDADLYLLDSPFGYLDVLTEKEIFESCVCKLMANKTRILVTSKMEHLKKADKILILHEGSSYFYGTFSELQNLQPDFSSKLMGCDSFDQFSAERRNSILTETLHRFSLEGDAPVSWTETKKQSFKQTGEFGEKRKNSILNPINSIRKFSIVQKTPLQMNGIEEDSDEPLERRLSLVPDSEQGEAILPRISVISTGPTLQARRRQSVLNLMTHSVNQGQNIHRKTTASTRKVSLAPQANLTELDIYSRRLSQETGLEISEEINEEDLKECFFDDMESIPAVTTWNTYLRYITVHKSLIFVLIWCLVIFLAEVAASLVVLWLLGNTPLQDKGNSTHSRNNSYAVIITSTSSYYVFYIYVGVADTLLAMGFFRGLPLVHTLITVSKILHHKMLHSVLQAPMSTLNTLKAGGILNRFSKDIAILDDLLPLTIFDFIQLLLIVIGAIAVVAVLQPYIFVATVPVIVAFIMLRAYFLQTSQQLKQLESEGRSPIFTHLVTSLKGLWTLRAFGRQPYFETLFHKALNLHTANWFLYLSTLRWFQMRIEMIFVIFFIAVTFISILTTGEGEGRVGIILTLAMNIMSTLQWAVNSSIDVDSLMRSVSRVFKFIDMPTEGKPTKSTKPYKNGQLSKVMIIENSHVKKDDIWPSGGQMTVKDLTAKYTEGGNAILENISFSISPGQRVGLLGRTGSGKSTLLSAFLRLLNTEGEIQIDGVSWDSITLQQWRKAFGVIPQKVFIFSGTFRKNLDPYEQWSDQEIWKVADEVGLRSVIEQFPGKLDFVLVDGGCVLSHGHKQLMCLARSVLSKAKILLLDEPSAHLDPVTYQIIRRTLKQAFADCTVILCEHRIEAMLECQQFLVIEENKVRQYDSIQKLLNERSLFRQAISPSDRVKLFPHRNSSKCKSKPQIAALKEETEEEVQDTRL
The experiment is described as follows: Protocol 2: FRET membrane potential optical assay (VIPR), identification of correction compounds. Particulars: F508del CFTR modulator activity; compounds of Table 1; read-out: EC30. Type of experiment: cell-based. Put shortly: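 Corrector readout: membrane-potential FRET (CC2-DMPE donor, DiSBAC2(3) acceptor) on VIPR II after Cl⁻-free gluconate bath with 10 μM forskolin and 20 μM genistein. Before this, F508del-expressing NIH3T3 cells were exposed to test compound for 16 h at 37 °C without serum; 27 °C incubation served as temperature-correction control.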
`C[C@@H]1CN(c2nc(-c3cccc4[nH]ccc34)ccc2C(=O)NS(=O)(=O)c2ccc[nH]c2=O)C(C)(C)C1` [Compound 2636, 6-(1H-indol-4-yl)-N-[(2-oxo-1H-pyridin-3-yl)sulfonyl]-2-[(4S)-2,2,4-trimethylpyrrolidin-1-yl]pyridine-3-carboxamide]: the 30% effect concentration (EC30) is more than 10000 nM.
Take `CCC1(C)CC(C)CN1c1nc(-c2cc(F)cc(OCC(C)C)c2)ccc1C(=O)NS(=O)(=O)c1cccc(N)n1` (single isomer, unassigned) [Compound 2213, N-[(6-amino-2-pyridyl)sulfonyl]-2-(2-ethyl-2,4-dimethyl-pyrrolidin-1-yl)-6-(3-fluoro-5-isobutoxy-phenyl)pyridine-3-carboxamide]: the 30% effect concentration (EC30) was less than 3000 nM.
Still for that read-out and setting: to `CC1CN(c2ncccc2C(=O)NS(=O)(=O)c2cccc(Oc3ccc(Cl)cc3)n2)C(C)(C)C1` (centres unmarked) [Compound 2145, N—[[6-(4-chlorophenoxy)-2-pyridyl]sulfonyl]-2-(2,2,4-trimethylpyrrolidin-1-yl)pyridine-3-carboxamide] belongs less than 3000 nM.
Same read-out and setting: in the case of `CC(C)COc1cc(F)cc(-c2ccc(C(=O)NS(=O)(=O)c3cccc(N)n3)c(NCC3CCCCC3)n2)c1` [Compound 2375, N-[(6-amino-2-pyridyl)sulfonyl]-2-(cyclohexylmethylamino)-6-(3-fluoro-5-isobutoxy-phenyl)pyridine-3-carboxamide] it was 3000 to 10000 nM; in that of `CC1CN(c2ncccc2C(=O)NS(=O)(=O)c2cccc(NCCCCc3ccccc3)n2)C(C)(C)C1` (centres unmarked) [Compound 2119, N—[[6-(4-phenylbutylamino)-2-pyridyl]sulfonyl]-2-(2,2,4-trimethylpyrrolidin-1-yl)pyridine-3-carboxamide], less than 3000 nM.
On to `COc1ccccc1CNc1cccc(S(=O)(=O)NC(=O)c2cccnc2N2CC(C)CC2(C)C)n1` (centres unmarked) [Compound 2310, N—[[6-[(2-methoxyphenyl)methylamino]-2-pyridyl]sulfonyl]-2-(2,2,4-trimethylpyrrolidin-1-yl)pyridine-3-carboxamide], for which the EC30 is less than 3000 nM.
Same read-out and setting: to `C[C@@H]1CN(c2nc(-n3ccc(OCC(C)(C)C)n3)ccc2C(=O)NS(=O)(=O)c2ccc[nH]c2=O)C(C)(C)C1` [Compound 2578, 6-[3-(2,2-dimethylpropoxy)pyrazol-1-yl]-N-[(2-oxo-1H-pyridin-3-yl)sulfonyl]-2-[(4S)-2,2,4-trimethylpyrrolidin-1-yl]pyridine-3-carboxamide] belongs less than 3000 nM; to `CC1CN(c2ncccc2C(=O)NS(=O)(=O)c2cccc(N3CCC[C@@H]3C(=O)OC(C)(C)C)n2)C(C)(C)C1` (stereo partly drawn) [Compound 2536, tert-butyl (2R)-1-[6-[[2-(2,2,4-trimethylpyrrolidin-1-yl)pyridine-3-carbonyl]sulfamoyl]-2-pyridyl]pyrrolidine-2-carboxylate], less than 3000 nM.
Regarding `C[C@@H]1CN(c2nc(-c3ccc(CO)cc3)ccc2C(=O)NS(=O)(=O)c2cccnc2N)C(C)(C)C1` [Compound 2590, N-[(2-amino-3-pyridyl)sulfonyl]-6-[4-(hydroxymethyl)phenyl]-2-[(4S)-2,2,4-trimethylpyrrolidin-1-yl]pyridine-3-carboxamide], the EC30 is less than 3000 nM.
Regarding `Cc1cc(OC2CCCC2)cc(-c2cnc(N3CC(C)CC3(C)C)c(C(=O)NS(=O)(=O)c3cccc(N)n3)c2)c1` (centres unmarked) [Compound 2313, N-[(6-amino-2-pyridyl)sulfonyl]-5-[3-(cyclopentoxy)-5-methyl-phenyl]-2-(2,2,4-trimethylpyrrolidin-1-yl)pyridine-3-carboxamide], the EC30 was less than 3000 nM.
For the compound `CC(C)COc1cc(F)cc(-c2ccc(C(=O)NS(=O)(=O)N3CC(N)CC(F)(F)C3)c(N3C[C@@H](C)CC3(C)C)n2)c1` (stereo partly drawn) [Compound 2209, N-[(5-amino-3,3-difluoro-1-piperidyl)sulfonyl]-6-(3-fluoro-5-isobutoxy-phenyl)-2-[(4S)-2,2,4-trimethylpyrrolidin-1-yl]pyridine-3-carboxamide], the EC30 was less than 3000 nM.
As to `CC1CN(c2ncccc2C(=O)NS(=O)(=O)c2cccc(N3CCCC3C(F)(F)F)n2)C(C)(C)C1` (centres unmarked) [Compound 2055, N—[[6-[2-(trifluoromethyl)pyrrolidin-1-yl]-2-pyridyl]sulfonyl]-2-(2,2,4-trimethylpyrrolidin-1-yl)pyridine-3-carboxamide], the EC30 was less than 3000 nM.

The same experiment, now with this note: Table 3; compounds of Table 1 as modulators of CFTR activity; protocol not stated.
Turning to `Cc1cc(C)c(Cn2c(C(=O)NS(=O)(=O)c3ccncc3)cc3c(F)cccc32)c(C)c1` [Compound 298, 4-fluoro-N-(4-pyridylsulfonyl)-1-[(2,4,6-trimethylphenyl)methyl]indole-2-carboxamide], the concentration for an effect of 30% (EC30) entry was “++ (“++” means between 3 uM and 10 uM)”.
On the same count and under the same terms, in the case of `CNc1cccc(S(=O)(=O)NC(=O)C2Cc3ccccc3CCN2Cc2c(C)cc(C)cc2C)n1` (centres unmarked) [Compound 747, N-[[6-(methylamino)-2-pyridyl]sulfonyl]-3-[(2,4,6-trimethylphenyl)methyl]-1,2,4,5-tetrahydro-3-benzazepine-4-carboxamide] it was “+++ (“+++” means <3 uM)”; in that of `Cc1cc(C)c(Cc2nc(C(C)(C)C)ccc2C(=O)NS(=O)(=O)c2cccc(N)c2)c(C)c1` [Compound 346, N-(3-aminophenyl)sulfonyl-6-tert-butyl-2-[(2,4,6-trimethylphenyl)methyl]pyridine-3-carboxamide], “+++ (“+++” means <3 uM)”; in that of `C=Cc1ccc(C(=O)NS(=O)(=O)c2cccc(N)n2)c(Oc2c(C)cc(C)cc2C)n1` [Compound 430, N-[(6-amino-2-pyridyl)sulfonyl]-2-(2,4,6-trimethylphenoxy)-6-vinyl-pyridine-3-carboxamide], “+++ (“+++” means <3 uM)”.
As for `COc1c(C)cccc1-c1ccc(C(=O)NS(=O)(=O)c2cccc(N)n2)c(Oc2c(C)cc(C)cc2C)n1` [Compound 477, N-[(6-amino-2-pyridyl)sulfonyl]-6-(2-methoxy-3-methyl-phenyl)-2-(2,4,6-trimethylphenoxy)pyridine-3-carboxamide], the EC30 entry is “+++ (“+++” means <3 uM)”.
Same read-out and setting: to `Cc1cc(C)c(CN2Cc3ccccc3CCC2C(=O)NS(=O)(=O)c2cccc(N)n2)c(C)c1` (centres unmarked) [Compound 690, N-[(6-amino-2-pyridyl)sulfonyl]-2-[(2,4,6-trimethylphenyl)methyl]-1,3,4,5-tetrahydro-2-benzazepine-3-carboxamide] belongs “++ (“++” means between 3 uM and 10 uM)”; to `CC(C)COc1cc(F)cc(-c2ccc(C(=O)NS(=O)(=O)c3ccn[nH]3)c(N3CCCC(C(C)C)C3)n2)c1` (centres unmarked) [Compound 498, 6-(3-fluoro-5-isobutoxy-phenyl)-2-(3-isopropyl-1-piperidyl)-N-(1H-pyrazol-5-ylsulfonyl)pyridine-3-carboxamide], “+++ (“+++” means <3 uM)”.
As to `Cc1cccc(C)c1Cn1nc(C(C)(C)C)cc1C(=O)NS(=O)(=O)c1ccccc1` [Compound 257, N-(benzenesulfonyl)-5-tert-butyl-2-[(2,6-dimethylphenyl)methyl]pyrazole-3-carboxamide], the EC30 entry is reported as “+++ (“+++” means <3 uM)”.
On to `Cc1ccc(Oc2nc(C(C)(C)C)ccc2C(=O)NS(=O)(=O)c2cccc(N)c2)c(C)c1` [Compound 251, N-(3-aminophenyl)sulfonyl-6-tert-butyl-2-(2,4-dimethylphenoxy)pyridine-3-carboxamide], for which the EC30 entry is “+++ (“+++” means <3 uM)”.
With `COc1ccc(-c2cc(C(=O)NS(=O)(=O)c3ccccc3)n(Cc3c(C)cccc3C)n2)cc1F` [Compound 43, N-(benzenesulfonyl)-2-[(2,6-dimethylphenyl)methyl]-5-(3-fluoro-4-methoxy-phenyl)pyrazole-3-carboxamide], the concentration for an effect of 30% (EC30) result is reported as “+++ (“+++” means <3 uM)”.
For the compound `COc1ncccc1-c1cc(C(=O)NS(=O)(=O)c2cccc(N)c2)n(Cc2c(C)cc(C)cc2C)n1` [Compound 122, N-(3-aminophenyl)sulfonyl-5-(2-methoxy-3-pyridyl)-2-[(2,4,6-trimethylphenyl)methyl]pyrazole-3-carboxamide], the EC30 entry is “++ (“++” means between 3 uM and 10 uM)”.
Regarding `Cc1cc(C)c(CN2Cc3cccc(C)c3CC2C(=O)NS(=O)(=O)c2cccc(N)n2)c(C)c1` (centres unmarked) [Compound 95, N-[(6-amino-2-pyridyl)sulfonyl]-5-methyl-2-[(2,4,6-trimethylphenyl)methyl]-3,4-dihydro-H-isoquinoline-3-carboxamide], the concentration for an effect of 30% (EC30) result is listed as “+++ (“+++” means <3 uM)”.
`COc1ccccc1S(=O)(=O)NC(=O)c1ccc(C(C)(C)C)nc1Oc1c(C)cc(C)cc1C` [Compound 115, 6-tert-butyl-N-(2-methoxyphenyl)sulfonyl-2-(2,4,6-trimethylphenoxy)pyridine-3-carboxamide]: the EC30 result is recorded as “+++ (“+++” means <3 uM)”.
The same measure, in the same setting: to `Cc1cc(C)c(Oc2ccc(C(C)(C)C)nc2C(=O)NS(=O)(=O)c2ccccc2)c(C)c1` [Compound 350, N-(benzenesulfonyl)-6-tert-butyl-3-(2,4,6-trimethylphenoxy)pyridine-2-carboxamide] belongs “+++ (“+++” means <3 uM)”.
For the compound `COc1ncc(-c2ccc(C(=O)NS(=O)(=O)c3cccc(N)n3)c(Oc3c(C)cc(C)cc3C)n2)cc1F` [Compound 612, N-[(6-amino-2-pyridyl)sulfonyl]-6-(5-fluoro-6-methoxy-3-pyridyl)-2-(2,4,6-trimethylphenoxy)pyridine-3-carboxamide], the 30% effect concentration (EC30) result was “+++ (“+++” means <3 uM)”.
In the case of `COc1ncccc1S(=O)(=O)NC(=O)c1ccc(C2(C)CC2)nc1Oc1c(C)cc(C)cc1C` [Compound 365, N-[(2-methoxy-3-pyridyl)sulfonyl]-6-(1-methylcyclopropyl)-2-(2,4,6-trimethylphenoxy)pyridine-3-carboxamide], the EC30 result is “+++ (“+++” means <3 uM)”.
In the case of `CC(C)Oc1ccc(-c2ccc(C(=O)NS(=O)(=O)c3cccc(N)n3)c(N3CCCC(C)C3C)n2)cn1` (centres unmarked) [Compound 353, N-[(6-amino-2-pyridyl)sulfonyl]-2-(2,3-dimethyl-1-piperidyl)-6-(6-isopropoxy-3-pyridyl)pyridine-3-carboxamide], the EC30 entry is “+++ (“+++” means <3 uM)”.
